Where two headings read alike, the source gives them in different places.

For data set [1], the target named is T1, human DHFR-HiBiT fusion protein (Homo sapiens, UniProt P00374).
T1 construct: expressed in transfected cells; host or cells: HBL1 cells retrovirally infected with pBMN-Ires-Lyt-2 carrying DHFR-HiBiT
T1 sequence (P00374 with tags, fused parts or gaps): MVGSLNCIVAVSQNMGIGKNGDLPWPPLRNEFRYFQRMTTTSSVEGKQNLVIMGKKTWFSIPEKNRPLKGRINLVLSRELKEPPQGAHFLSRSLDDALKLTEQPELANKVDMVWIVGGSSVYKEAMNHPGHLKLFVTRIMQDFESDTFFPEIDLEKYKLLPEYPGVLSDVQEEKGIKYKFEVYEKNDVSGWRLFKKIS
Briefly: DHFR-HiBiT assay (high-throughput DHFR abundance) in HBL1 cells. The settings on record: for Dmax: % change in untreated cellular DHFR level (control), negative = degradation, positive = stabilization, HBL1, 24 h, read-out: efficacy (%). The class given is cell-based. The source says: The human DHFR-HiBiT construct was synthetized (Bio Basic) and cloned into the retroviral vector pBMN-Ires-Lyt-2 (provided by G. Nolan, Stanford University, Stanford, CA) which expresses the coding region of mouse CD8a (Lyt-2) using the restriction sites BamHI/XhoI. All constructs were sequenced to validate authenticity. Infected cells were positively selected based on murine CD8a expression using magnetic beads (Miltenyi Biotech).
Cell culture: Human embryonic kidney HEK293T cells were maintained in DMEM (Gibco) supplemented with 10% fetal bovine serum (Hyclone), 2 mmol/L 1-glutamine, HEPES (Gibco) and 100 U/mL penicillin/streptomycin (Invitrogen). The lymphoma cell line HBL1 were maintained in RPMI (Life Technology) supplemented with 5% fetal bovine serum (Hyclone), 2 mmol/L L-glutamine, HEPES (Gibco) and 100 U/mL penicillin/streptomycin (Invitrogen).
Transfection and retroviral infections: Transfections were performed using Lipofectamine 2000 (Invitrogen) according to the manufacturer's protocol. For retroviral infections, viruses were produced in HEK293T cells and used to infect HBL1 cell line. […] Supernatants containing the retrovirus were collected and filtered at 48- and 72-hours post-transfection. HBL1 cells were centrifuged and then resuspended with the retroviral supernatant with 8 μg/ml of polybrene. The cells were spin-infected twice on consecutive days at 2,500 rpm, at RT, for 90 minutes.
Lytic HiBiT Detection: Cells were plated in solid white 1536-well tissue culture plates (Greiner), at the concentration of 2000 cells/well. After treatment, an equal volume of Nano-Glo HiBiT Lytic Reagent (Promega) containing the substrate furimazine and Large BiT (LgBiT) was added to the cells according to the manufacturer's protocol. Cells were incubated for 10 min at room temperature, and luminescence was measured using a Perkin Elmer ViewLux microplate imager with 30 seconds of exposure time.
(In general: With HiBiT, luminescence reflects the tagged protein that the partner subunit can reach.)

The subject of data set [2] is MTX-resistant HBL1 cell line. The class given is cell-based. As to the method:
(§1) CellTiter-Glo viability assays: Five μL of cells (2500 cells) from the 12-well plate culture were plated into white 1536-well plates (Greiner, Monroe, NC, 789173-F) in 6 replicates. CellTiter-Glo Luminescent Cell Viability Assay (CTG) (Promega, G7572), 2.5 μL/well reagent was added with a BioRAPTR FRD (Beckman Coulter, Sykesville, MD), plates were incubated in the dark at ambient temperature for 10 min, and luminescence measured with a ViewLux 1430 Ultra HTS (Perkin Elmer, Waltham, MA).

In data set [3] the test system is HBL1 cell line. Briefly: CellTiter-Glo cell viability (cytotox), HBL1 cell line, 72 hours. It is filed as cell-based. The following applies: HBL1 cell line, CellTiter-Glo; unit inferred. The method, then: as §1
For orientation: ATP-based viability assays read luminescence as a measure of living cells.

Data set [4] addresses T2, DHFR (Homo sapiens, UniProt P00374).
T2 construct: Western blot detection of DHFR levels after treatment of HBL1 cells for 16 h; endogenous in cells; host or cells: HBL1 lymphoma cell line
T2 sequence (P00374 1-187): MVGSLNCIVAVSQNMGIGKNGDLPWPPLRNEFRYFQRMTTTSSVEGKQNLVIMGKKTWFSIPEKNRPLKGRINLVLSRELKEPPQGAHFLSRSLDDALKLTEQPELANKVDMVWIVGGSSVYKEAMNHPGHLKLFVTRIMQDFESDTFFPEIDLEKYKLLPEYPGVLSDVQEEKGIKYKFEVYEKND
The class given is cell-based. The following applies: HBL1 cells, Western blot. From the text: Human embryonic kidney HEK293T cells and immortalized fibroblasts were maintained in DMEM (Gibco) supplemented with 10% fetal bovine serum (Hyclone), 2 mmol/L L-glutamine, Hepes (Gibco), and 100 U/mL penicillin/streptomycin (Invitrogen). The lymphoma cell line HBL1 was maintained in RPMI (Life Technology) supplemented with 5% fetal bovine serum (Hyclone), 2 mmol/L 1-glutamine, Hepes (Gibco), and 100 U/mL penicillin/streptomycin (Invitrogen).
Western blotting: Cells at confluence from 12-well plate treatments were washed with PBS and lysed in 75 μL/well NP40 lysis buffer (Cell Signaling), subjected to agitation and centrifugation. Approximately 100 μg of total protein was used per analysis. […] Blots were first incubated with 1:2000 dilution of anti-human DHFR antibody (Abcam, ab124814, host rabbit) for 16 h at 4° C. with shaking, washed 3× with TBS-T and incubated with 1:2000 dilution of anti-human β-actin primary antibody (Cell Signaling, host mouse) for 1 h at ambient temperature with shaking. Blots were then washed 3× with TBS-T and incubated with 1:5000 HRP secondary antibody (Novex, anti-Rabbit IgG raised in Goat, 1 mg/ml) for 1 h at ambient temperature, then washed with 3×TBS-T and developed with Pierce ECL Dura reagent for 5 min. Immunoreactive bands were imaged on a ChemiDoc Imaging System (Bio-Rad) with 20 s chemiluminescence exposure. The molecular weight marker ladder was imaged with colorimetric auto-exposure, and both images merged.
A general note: In western blotting, separated proteins are transferred to a membrane and probed.

Data set [5] concerns fibroblasts. Briefly: CellTiter-Glo ATP levels in fibroblasts. The class given is cell-based. The settings on record: fibroblasts, CellTiter-Glo. As to the method: (§2) Cell Culture Methods: Cells (HBL1, immortalized fibroblasts from a healthy donor, or 293T) were seeded at the numbers indicated in a 12-well plate in 500 ul. […] Human embryonic kidney HEK293T cells and immortalized fibroblasts were maintained in DMEM (Gibco) supplemented with 10% fetal bovine serum (Hyclone), 2 mmol/L L-glutamine, Hepes (Gibco), and 100 U/mL penicillin/streptomycin (Invitrogen). The lymphoma cell line HBL1 was maintained in RPMI (Life Technology) supplemented with 5% fetal bovine serum (Hyclone), 2 mmol/L 1-glutamine, Hepes (Gibco), and 100 U/mL penicillin/streptomycin (Invitrogen). Cells were cultured in incubators maintained at 37° C., with 5% CO2 and 85% humidity.
(§3) Cell-Titer-Glo viability assays: Five μL of cells (2500 cells) from the 12-well plate culture were plated into white 1536-well plates (Greiner, Monroe, NC, 789173-F) in 6 replicates. CellTiter-Glo Luminescent Cell Viability Assay (CTG) (Promega, G7572), 2.5 μL/well reagent was added with a BioRAPTR FRD (Beckman Coulter, Sykesville, MD), plates were incubated in the dark at ambient temperature for 10 min, and luminescence measured with a ViewLux 1430 Ultra HTS (Perkin Elmer, Waltham, MA).

Data set [6] concerns 293T cells. Briefly: CellTiter-Glo ATP levels in 293T cells. The settings on record: 293T cells, CellTiter-Glo. It is filed as cell-based, human. The method, then: as §2, §3
For data set [7], the target named is T2, DHFR. Briefly: Western blot detection of DHFR levels in fibroblasts. It is filed as cell-based. The settings on record: 16 h at 1 μM. As to the method: as §2
Western blotting: Cells at confluence from 12-well plate treatments were washed with PBS and lysed in 75 μL/well NP40 lysis buffer (Cell Signaling), subjected to agitation and centrifugation. Approximately 100 μg of total protein was used per analysis. Proteins were sized on a NuPAGE 12% Bis-Tris Gel, 1.0 mm×10 wells, proteins transferred to 0.2 μm nitrocellulose membrane for 60 min followed by blocking with 5% t milk in TBS-T for 1 h at ambient temperature with gentle shaking. […]

The target in data set [8] is T3, thymidylate synthase (TS) (Homo sapiens, UniProt P04818). Briefly: Western blot of thymidylate synthase levels in fibroblasts. The class given is cell-based. The settings on record: 16 h.
For data set [9], the target named is T3, thymidylate synthase (TS). Nature of the data set: Western blot of thymidylate synthase levels in HBL1 cells. It is filed as cell-based. Details: Western blot detection of folate-cofactor dependent enzyme levels after treatment of HBL1 cells; endogenous in cells; host or cells: HBL1 lymphoma cell line. The settings on record: 1 μM, 16 h.
Data set [10] concerns the target T3, thymidylate synthase (TS). Nature of the data set: Western blot of thymidylate synthase levels in 293T cells. The class given is cell-based. The settings on record: 16 h.

T3 sequence (P04818 2-313 limits assumed): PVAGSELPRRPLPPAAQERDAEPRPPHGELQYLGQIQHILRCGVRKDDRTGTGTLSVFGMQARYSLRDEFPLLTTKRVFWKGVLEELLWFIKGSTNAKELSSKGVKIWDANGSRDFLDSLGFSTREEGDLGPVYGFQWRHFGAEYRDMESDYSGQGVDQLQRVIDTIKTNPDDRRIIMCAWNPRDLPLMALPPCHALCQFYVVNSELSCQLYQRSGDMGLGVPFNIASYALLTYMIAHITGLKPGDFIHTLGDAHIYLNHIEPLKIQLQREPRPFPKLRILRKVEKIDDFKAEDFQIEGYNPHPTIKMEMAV

For orientation: IC50 means the concentration needed to halve the response being measured. A lower IC50 goes with greater potency in that assay. With `CN(Cc1cnc2nc(N)nc(N)c2n1)c1ccc(C(=O)NC(CC(F)C(=O)O)C(=O)O)cc1` (stereo not drawn) [FMTX, 2-(4-(((2,4-diaminopteridin-6-yl)methyl)(methyl)amino)benzamido)-4-fluoropentanedioic acid, reference compound], the Dmax in data set [1] is -115%. In addition, the DC50 in data set [1] (HBL1 cells expressing DHFR-HiBiT, 24 h, degradation or stabilization potency, average of N = 2-5, read-out: Ave EC50) was found to be 0.28 µM. The “cellular toxicity in MTX-resistant HBL1 cell line” value in data set [2] is “greatly decreased”. In data set [3], this compound displayed an IC50 of 1.1 µM.
With `Cc1ncsc1-c1ccc(CNC(=O)C2C[C@@H](O)CN2C(=O)C(NC(=O)COCCOCCNC(=O)CC[C@H](NC(=O)c2ccc(N(C)Cc3cnc4nc(N)nc(N)c4n3)cc2)C(=O)O)C(C)(C)C)cc1` (stereo partly drawn) [NCGC00685995, (17S)-17-(4-(((2,4-diaminopteridin-6-yl)methyl)(methyl)amino)benzamido)-3-((4R)-4-hydroxy-2-((4-(4-methylthiazol-5-yl)benzyl)carbamoyl)pyrrolidine-1-carbonyl)-2,2-dimethyl-5,14-dioxo-7,10-dioxa-4,13-diazaoctadecan-18-oic acid], the “effect on DHFR protein levels” value is listed as “no alterations in DHFR protein levels” in data set [4] and “MTX-like stabilization of DHFR” in [7]. In addition, the “effect on ATP levels” value in data set [5] and in [6] was “not observed” each time. The compound further showed an IC50 in data set [3] of 20.2 µM.
Turning to `Cc1ncsc1-c1ccc(CNC(=O)C2C[C@@H](O)CN2C(=O)C(NC(=O)COCCOCCOCCOCCNC(=O)CC[C@H](NC(=O)c2ccc(N(C)Cc3cnc4nc(N)nc(N)c4n3)cc2)C(=O)O)C(C)(C)C)cc1` (stereo partly drawn) [NCGC00685964, (23S)-23-(4-(((2,4-diaminopteridin-6-yl)methyl)(methyl)amino)benzamido)-3-((4R)-4-hydroxy-2-((4-(4-methylthiazol-5-yl)benzyl)carbamoyl)pyrrolidine-1-carbonyl)-2,2-dimethyl-5,20-dioxo-7,10,13,16-tetraoxa-4,19-diazatetracosan-24-oic acid], the “effect on DHFR protein levels” value in data set [4] is on record as “no alterations in DHFR protein levels”. In data set [3], this compound registered an IC50 of 21.5 µM.
As for `CN(Cc1cnc2nc(N)nc(N)c2n1)c1ccc(C(=O)N[C@@H](CCC(=O)NCCCCCCCCNc2cccc3c2C(=O)N(C2CCC(=O)NC2=O)C3=O)C(=O)O)cc1` (stereo partly drawn) [NCGC00685928, N2-(4-(((2,4-diaminopteridin-6-yl)methyl)(methyl)amino)benzoyl)-N5-(8-((2-(2,6-dioxopiperidin-3-yl)-1,3-dioxoisoindolin-4-yl)amino)octyl)-L-glutamine], the “effect on DHFR protein levels” value in data set [4] is “robust DHFR depletion”. The Dmax in [1] stood at 65%. Further, the entries for the “effect on TS protein level” value in data set [8], in data set [9] and in data set [10] were “low but detectable increases in TS”, “slight increase in TS” and “no significant change in TS levels”, respectively. It took 23.7 µM to reach half-maximal inhibition in data set [3] (IC50).
With `COC(=O)[C@H](CCC(=O)NCCOCCOCCOCCNC(=O)COc1cccc2c1C(=O)N(C1CCC(=O)NC1=O)C2=O)NC(=O)c1ccc(N(C)Cc2cnc3nc(N)nc(N)c3n2)cc1` (stereo partly drawn) [NCGC00842394, Methyl (19S)-19-(4-(((2,4-diaminopteridin-6-yl)methyl)(methyl)amino)benzamido)-1-((2-(2,6-dioxopiperidin-3-yl)-1,3-dioxoisoindolin-4-yl)oxy)-2,16-dioxo-6,9,12-trioxa-3,15-diazaicosan-20-oate], in [1], the Dmax was found to be 27.6%. The compound further displayed an IC50 in data set [3] of 33.9 µM.
As for `CN(Cc1cnc2nc(N)nc(N)c2n1)c1ccc(C(=O)N[C@@H](CCC(=O)NCCOCCOCCNc2cccc3c2C(=O)N(C2CCC(=O)NC2=O)C3=O)C(=O)O)cc1` (stereo partly drawn) [NCGC00687555], in data set [1], the Dmax amounted to 56.9%. Also, in [3], the IC50 was determined as 3.93 µM.

Source of the values: patent US20230406859A1, “METHOTREXATE ANALOGS AND METHODS OF USE” (The United States of America, as represented by the …, priority 2020, published 2023).
